Results from US20210161866A1, “DRUG FOR USE IN COMBINATION, AND USE THEREOF FOR PREPARING DRUGS FOR TREATMENT OF HIGH-GRADE BRAIN TUMORS IN RESPONSE TO INEFFECTIVE STANDARD TREATMENT FOR POSTOPERATIVE RECURRENCE” (SICHUAN JIUZHANG BIOLOGICAL SCIENCE AND TECHNOLOGY CO., LTD., priority 2018, published 2021).

Experiments:
[1] = tested on: high-grade glioma relapsed after failure of standard treatment; test: Clinical trial of chlorogenic acid for injection, effectiveness by RANO standard and survival; format: in vivo, patients
Method: A total of 23 subjects completed the test in this trial, including 5 patients with grade III gliomas and 18 patients with grade IV gliomas. […] The subjects included in this trial were all patients with high-grade glioma who relapsed after surgery and didn't response to the standard therapy. The standard treatment was chemotherapy and radiotherapy. […] Ineffective means tumor progression. […] The effectiveness evaluation was performed according to the RANO standard, and the specific RANO standards are as follows: [table] […] A total of 26 subjects were enrolled in the trial, 3 cases were released early, and 23 cases can be counted: […]

[2] = tested on: high-grade anaplastic astrocytoma that relapsed after surgery and on which the standard therapy failed; test: Tumor inhibition rate in animal model of high-grade anaplastic astrocytoma; format: in vivo, rats; settings: for Tumor inhibition rate (%) / Tumor weight: 5th day after drug-withdrawal
Method: (§1) 1.1 Cell culture: The pathological tissue for cell culture was a tissue sample removed surgically from high-grade brain tumor that relapsed after surgery and on which the standard therapy failed. Glioblasts cells, high-grade anaplastic astrocytoma cells, high-grade anaplastic oligodendrocytoma cells, high-grade anaplastic oligoastrocytoma cells, and brain tumor cells with unclear pathological types, obtained by separation and culture of pathological tissue, were seeded in DMEM complete culture medium containing 10% FBS and routinely incubated in a 37° C., 5% carbon dioxide incubator under saturated humidity. TMZ was dissolved in DMSO solution, and the mass concentration of the stock solution was 100 mg/mL. Tumor cells in the logarithmic growth phase were diluted to obtain a cell suspension at 1×10^5 cells/mL, and the initial inducer dose 0.25 μg/mL of TMZ was added after routinely culturing for 24 h. The culture was continued for 15-20 days, and after stabilization of cell growth, the induced concentration of the drug was doubled, then the cells were further cultured for 15-20 d at each induced concentration. Thus, the final concentration of TMZ was 16.00 μg/mL, and various pathological types of cell suspensions were obtained.
(§2) The cell suspension obtained in step 1 was inoculated into rats in situ, to prepare animal models of high-grade anaplastic astrocytoma that relapsed after surgery and on which the standard therapy failed, and the animals were divided into test groups listed in the following table. […] On the 5th day after drug-withdrawal, the size of the in situ tumor in the rat brain was observed, and the tumor was weighed. The tumor inhibition rate was calculated.

[3] = tested on: glioblastoma that relapsed after surgery and on which the standard therapy failed; test: Tumor inhibition rate in animal model of glioblastoma; format: in vivo, rats; settings: for Tumor inhibition rate (%) / Tumor weight: 5th day after drug-withdrawal
Method: as §1
(§3) The cell suspension obtained in step 1 was inoculated into rats in situ, to prepare animal models of glioblastoma that relapsed after surgery and on which the standard therapy failed, and the animals were divided into test groups listed in the following table. […] The tumor inhibition rate was calculated.

[4] = tested on: brain tumor with unclear pathological types that relapsed after surgery and on which the standard therapy failed; test: Tumor inhibition rate in animal model of brain tumors with unclear pathological types; format: in vivo, rats; settings: for Tumor inhibition rate (%) / Tumor weight: 5th day after drug-withdrawal
Method: as §1
as §2, with “brain tumor with unclear pathological types” for “high-grade anaplastic astrocytoma”

[5] = tested on: high-grade anaplastic oligoastrocytoma that relapsed after surgery and on which the standard therapy failed; test: Tumor inhibition rate in animal model of high-grade anaplastic oligoastrocytoma; format: in vivo, rats; settings: for Tumor inhibition rate (%) / Tumor weight: 5th day after drug-withdrawal
Method: as §1
as §3, with “high-grade anaplastic oligoastrocytoma” for “glioblastoma”

[6] = tested on: high-grade anaplastic oligodendrocytoma that relapsed after surgery and on which the standard therapy failed; test: Tumor inhibition rate in animal model of high-grade anaplastic oligodendrocytoma; format: in vivo, rats; settings: for Tumor inhibition rate (%) / Tumor weight: 5th day after drug-withdrawal
Method: as §1
as §3, with “high-grade anaplastic oligodendrocytoma” for “glioblastoma”

[7] = dose 35 mg/kg i.p. daily 10 days

O=C(/C=C/c1ccc(O)c(O)c1)O[C@@H]1C[C@](O)(C(=O)O)C[C@@H](O)[C@H]1O [Chlorogenic acid, chlorogenic acid]
response rate ([1]; 9 survival subjects with grade IV glioblastoma, 1 cycle): 88.9%
response rate ([1]; nine dead subjects with grade IV glioma, one cycle): 11.1%
Tumor inhibition rate (%) [2, 7]: 50.2%
Tumor weight [2, 7]: 1.12 ± 0.10
therapeutic effect in words ([2]; summary of the anaplastic astrocytoma model table): significant inhibitory effect
Tumor inhibition rate (%) [3, 7]: 52.2%
therapeutic effect in words ([3]; summary of the glioblastoma model table): significant inhibitory effect
Tumor inhibition rate (%) [4, 7]: 44.5%
Tumor weight [4, 7]: 1.21 ± 0.11
therapeutic effect in words ([4]; summary of the table for brain tumors with unclear pathological types): significant inhibitory effect
Tumor inhibition rate (%) [5, 7]: 47.0%
therapeutic effect in words ([5]; summary of the anaplastic oligoastrocytoma model table): significant inhibitory effect
Tumor inhibition rate (%) [6, 7]: 52.6%
therapeutic effect in words ([6]; summary of the anaplastic oligodendrocytoma model table): significant inhibitory effect

Cn1nnc2c(C(N)=O)ncn2c1=O [temozolomide]
Tumor inhibition rate (%) ([2]; dose 10 mg/kg oral 5 days): 13.3%
Tumor weight ([2]; dose 10 mg/kg oral 5 days): 1.95 ± 0.18
Tumor inhibition rate (%) ([2]; dose 20 mg/kg oral 5 days): 20.9%
Tumor weight ([2]; dose 20 mg/kg oral 5 days): 1.78 ± 0.11
Tumor inhibition rate (%) ([3]; dose 10 mg/kg oral 5 days): 14.6%
Tumor weight ([3]; dose 10 mg/kg oral 5 days): 1.75 ± 0.14
Tumor inhibition rate (%) ([3]; dose 20 mg/kg oral 5 days): 24.1%
Tumor weight ([3]; dose 20 mg/kg oral 5 days): 1.54 ± 0.10
Tumor inhibition rate (%) ([4]; dose 10 mg/kg oral 5 days): 16.0%
Tumor weight ([4]; dose 10 mg/kg oral 5 days): 1.83 ± 0.13
Tumor inhibition rate (%) ([4]; dose 20 mg/kg oral 5 days): 25.7%
Tumor weight ([4]; dose 20 mg/kg oral 5 days): 1.62 ± 0.14
Tumor inhibition rate (%) ([5]; dose 10 mg/kg oral 5 days): 13.1%
Tumor weight ([5]; dose 10 mg/kg oral 5 days): 1.72 ± 0.14
Tumor inhibition rate (%) ([5]; dose 20 mg/kg oral 5 days): 20.2%
Tumor weight ([5]; dose 20 mg/kg oral 5 days): 1.58 ± 0.12
Tumor inhibition rate (%) ([6]; dose 10 mg/kg oral 5 days): 15.5%
Tumor weight ([6]; dose 10 mg/kg oral 5 days): 1.80 ± 0.15
Tumor inhibition rate (%) ([6]; dose 20 mg/kg oral 5 days): 22.5%
Tumor weight ([6]; dose 20 mg/kg oral 5 days): 1.65 ± 0.14
